As usually defined, the Km is the substrate concentration at which the rate is half of its maximum.

Where two headings read alike, the source gives them in different places.

The source of these data is patent US9603862B2, “Activation and activators of SIRT5” (CORNELL UNIVERSITY, priority 2009, dated 2017).

In the assay the target is T1, SIRT5 (Homo sapiens, UniProt Q9NXA8).
T1 sequence (Q9NXA8 37-310): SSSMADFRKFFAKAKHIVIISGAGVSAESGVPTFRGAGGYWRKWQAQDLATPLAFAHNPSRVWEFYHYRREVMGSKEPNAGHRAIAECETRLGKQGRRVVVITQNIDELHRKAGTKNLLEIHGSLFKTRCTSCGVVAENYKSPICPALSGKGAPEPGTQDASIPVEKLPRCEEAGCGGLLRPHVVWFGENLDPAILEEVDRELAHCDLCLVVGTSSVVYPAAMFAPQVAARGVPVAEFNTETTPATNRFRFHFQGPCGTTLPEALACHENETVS
Briefly: SIRT5 deacetylation activation assay (radiolabelled NAD+, DEAE-Sephadex column, turnover with vs without activator). It counts as biochemical. The protocol: The reactions were processed using DEAE columns. […]
Reactions containing NAD^+ including [2,8A^−3H]-NAD^+, peptide substrate, with or without activator in 100 mM phosphate buffer (pH 7.5) were initiated by addition of SIRT5 enzyme to a concentration of 10 μM. Reactions were incubated at 37° C. for 1 h and quenched by addition of trifluoroacetic acid to pH 2. After centrifugation to remove the precipitates, reactions were loaded onto columns containing pre-equilibrated DEAE-Sephadex (equilibrated with 5 mM ammonium acetate pH 7). The reaction mixture was then eluted with eight fractions of 20 mM ammonium acetate pH 7 and three fractions of 300 mM ammonium acetate pH 7. The radioactivity contained in the eluents was then quantified by scintillation counter. Radiolabelled NAD^+ eluted in the 20 mM washes, while products ADPR and AADPR eluted in the 300 mM fractions. Radioactivity in the remaining NAD^+ fractions and the radioactivity in the product fractions were then converted to a turnover rate (1/s) by adjustment for specific radioactivity and enzyme concentration. The turnovers from the reaction with or without the activators were compared to show the percentage of activation.
Test compounds were assayed against SIRT5 as described in Example 1.

Setting [1] is: FIG. 4, 500 μM JB12, 500 μM NAD+, 1 mM of activator compound.
[2] abbreviates: FIG. 4, 500 μM JB12, 500 μM NAD+, 1 mM of activator compound, read-out: Km of activator for activation of SIRT5-catalyzed deacetylation.
Where [3] appears, read: FIG. 3, varying concentrations of activator, 500 μM NAD+, 500 μM JB12, DEAE columns.
Where [4] appears, read: FIG. 3, varying concentrations of activator, 500 μM NAD+, 500 μM JB12, DEAE columns, read-out: Km of activator for activation of SIRT5-catalyzed deacetylation (Michaelis Menten curve fitting).

Molecule `COB(OC)c1ccc[n+]([C@H]2CC(O)[C@@H](COP(=O)([O-])O)O2)c1` (stereo partly drawn) yielded an SIRT5 % activated (at 160 μM test compound) of 50% activated at 160 μM. On to `COC(=O)c1ccc[n+]([C@@H]2O[C@H](CO)[C@@H](O)[C@H]2O)c1` [O-methyl NR, methyl nicotinate riboside], for which the “max activation of SIRT5 deacetylation” value under setting [1] is recorded as 190%. Further, the Michaelis constant (Km) under setting [2] was 93 µM. On the same counts, the results for `O=C([O-])c1ccc[n+]([C@@H]2O[C@H](CO)[C@@H](O)[C@H]2O)c1` [NaR, nicotinic acid riboside] are 160% and 821 µM.

Consider `NC(=O)c1ccc[n+](C2O[C@H](CO)[C@@H](O)[C@H]2Cl)c1` (stereo partly drawn) [ribo-Cl-NR, 1-(2′-deoxy-2′-chloro-ribofuranosyl)-nicotinamide], for which the “max activation of SIRT5 deacetylation” value under setting [3] is 125%. In addition, the Michaelis constant (Km) under setting [4] came to 95 µM. For the setting “at 800 μM test compound”, `NC(=O)c1ccc[n+]([C@@H]2O[C@H](CO)C(O)C2O)c1` (stereo partly drawn) gave an SIRT5 % activated of 100% activated at 800 μM. `NC(=O)c1ccc[n+]([C@@H]2O[C@H](CO)C(O)C2Cl)c1` (stereo partly drawn) returned an SIRT5 % activated (at 1 mM test compound) of 75% activated at 1 mM. For the setting “at 600 μM test compound”, `CCOC(=O)c1ccc[n+]([C@@H]2O[C@H](CO)C(O)C2O)c1` (stereo partly drawn) showed an SIRT5 % activated of 40% activated at 600 μM. As to `O=C(O)c1ccc[n+]([C@@H]2O[C@H](CO)C(O)C2O)c1` (stereo partly drawn), the SIRT5 % activated (at 800 μM test compound) was 60% activated at 800 μM. For the setting “at 2.4 mM test compound”, `NC(=O)c1ccc[n+]([C@@H]2O[C@H](CO)C(O)C2(F)F)c1` (stereo partly drawn) gave an SIRT5 % activated of 90% activated at 2.4 mM.

Under “at 600 μM test compound”, `COC(=O)c1ccc[n+]([C@@H]2O[C@H](CO)C(O)C2O)c1` (stereo partly drawn) registered an SIRT5 % activated of 80% activated at 600 μM. As for `NC(=O)c1ccc[n+](C2O[C@H](CO)[C@@H](O)C2(F)F)c1` (stereo partly drawn) [gem-diF-NR, 1-(2′-deoxy-2′,2′-difluoro-ribofuranosyl)-nicotinamide], the “max activation of SIRT5 deacetylation” value under setting [3] worked out at 120%. Further, the Km under setting [4] is 50 µM. `CCOC(=O)c1ccc[n+]([C@@H]2O[C@H](CO)[C@@H](O)[C@H]2O)c1` [O-ethyl NR, ethyl nicotinate riboside]: the “max activation of SIRT5 deacetylation” value under setting [1] was 150%. Moreover, the Km under setting [2] was found to be 323 µM.

As for `NC(=O)c1ccc[n+]([C@@H]2O[C@H](CO)[C@@H](O)[C@H]2O)c1` [NR, nicotinamide riboside], the Emax (FIG. 3, varying concentrations of activator, 500 μM NAD+, 500 μM JB12, DEAE columns, read-out: max activation of SIRT5 deacetylation) was 200%.
